Assay [1] concerns the target Vascular endothelial growth factor receptor 3 (Homo sapiens) (UniProt P35916). Put plainly: Inhibition of recombinant human GST-tagged FLT4 (800 to 1297 residues) expressed in baculovirus expression system at 500 nM using Tyr 04 peptide as substrate incubated for 1 hr in presence of ATP at its Km concentration by Z'-LYTE assay relative to control.
The target of assay [2] is Tyrosine-protein kinase SYK (Homo sapiens) (UniProt P43405). The assay can be described thus: Inhibition of recombinant human N-terminal GST-tagged full length SYK expressed in baculovirus expression system at 500 nM using Tyr 02 as substrate incubated for 1 hr in presence of ATP at its Km concentration by Z'-LYTE assay relative to control.
For assay [3], the target named is T1, Testis-specific serine/threonine-protein kinase 2 (Homo sapiens) (UniProt Q96PF2).
T1 sequence (whole entry): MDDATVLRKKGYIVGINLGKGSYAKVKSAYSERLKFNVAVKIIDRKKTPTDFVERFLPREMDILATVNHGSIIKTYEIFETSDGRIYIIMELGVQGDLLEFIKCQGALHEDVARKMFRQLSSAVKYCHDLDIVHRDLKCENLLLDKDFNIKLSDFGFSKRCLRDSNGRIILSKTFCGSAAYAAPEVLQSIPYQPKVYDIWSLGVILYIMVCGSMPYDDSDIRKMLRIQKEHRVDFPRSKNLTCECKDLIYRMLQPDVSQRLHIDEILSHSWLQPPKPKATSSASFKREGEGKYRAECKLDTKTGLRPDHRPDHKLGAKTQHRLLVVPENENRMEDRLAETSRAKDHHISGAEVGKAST
Put plainly: Inhibition of recombinant full length human His-tagged STK22B expressed in baculovirus expression system at 500 nM using Ser/Thr 04 as substrate incubated for 1 hr in presence of ATP at its Km concentration by Z'-LYTE assay relative to control.

The target of assay [4] is cAMP-dependent protein kinase catalytic subunit alpha (Homo sapiens) (UniProt P17612). Put plainly: Inhibition of recombinant human His-tagged PRKACA (1 to 351 residues) expressed in Escherichia coli expression system at 500 nM using Ser/Thr 01 as substrate incubated for 1 hr in presence of ATP at its Km concentration by Z'-LYTE assay relative to control.
Assay [5] deals with Tyrosine-protein kinase FRK (Homo sapiens) (UniProt P42685). Put plainly: Inhibition of recombinant human GST-tagged full length FRK expressed in baculovirus expression system at 500 nM using Tyr 01 peptide as substrate incubated for 1 hr in presence of ATP at its Km concentration by Z'-LYTE assay relative to control.
The target in assay [6] is Proto-oncogene tyrosine-protein kinase receptor Ret (Homo sapiens) (UniProt P07949). Put plainly: Inhibition of recombinant human GST-tagged RET (658 to 1114 residues) expressed in baculovirus expression system at 500 nM using Tyr 02 as substrate incubated for 1 hr in presence of ATP at its Km concentration by Z'-LYTE assay relative to control.
Assay [7] concerns the target Tyrosine-protein kinase Lyn (Homo sapiens) (UniProt P07948). The assay can be described thus: Inhibition of recombinant full length human His-tagged LYN-B expressed in baculovirus expression system at 500 nM using Tyr 02 as substrate incubated for 1 hr in presence of ATP at its Km concentration by Z'-LYTE assay relative to contro.
Assay [8] addresses T2, Aurora kinase A (Homo sapiens) (UniProt O14965).
T2 sequence (whole entry): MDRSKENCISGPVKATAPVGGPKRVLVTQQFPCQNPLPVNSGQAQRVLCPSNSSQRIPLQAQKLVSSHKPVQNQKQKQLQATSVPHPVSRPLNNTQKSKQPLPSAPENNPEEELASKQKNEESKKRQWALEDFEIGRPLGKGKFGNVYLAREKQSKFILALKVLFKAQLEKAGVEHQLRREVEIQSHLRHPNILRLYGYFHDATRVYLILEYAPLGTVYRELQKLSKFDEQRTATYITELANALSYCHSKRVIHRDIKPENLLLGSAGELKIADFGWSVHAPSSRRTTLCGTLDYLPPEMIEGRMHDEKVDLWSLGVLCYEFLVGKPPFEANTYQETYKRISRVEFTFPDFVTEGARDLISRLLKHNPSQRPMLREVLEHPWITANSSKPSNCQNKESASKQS
Put plainly: Inhibition of recombinant human full length His-tagged AURKA expressed in baculovirus expression system at 500 nM using Ser/Thr 01 as substrate incubated for 1 hr in presence of ATP at its Km concentration by Z'-LYTE assay relative to control.

Assay [9] concerns the target Serine/threonine-protein kinase PLK1 (Homo sapiens) (UniProt P53350). Put plainly: Inhibition of recombinant full length human His-tagged PLK1 expressed in baculovirus expression system at 500 nM using Ser/Thr 16 as substrate incubated for 1 hr in presence of ATP at its Km concentration by Z'-LYTE assay relative to control.
Assay [10] concerns the target Vascular endothelial growth factor receptor 2 (Homo sapiens) (UniProt P35968). Put plainly: Inhibition of recombinant human His-tagged KDR (789 to 1356 residues) expressed in baculovirus expression system at 500 nM using Tyr 01 as substrate incubated for 1 hr in presence of ATP at its Km concentration by Z'-LYTE assay relative to control.
In assay [11] the target is Tyrosine-protein kinase CSK (Homo sapiens) (UniProt P41240). The assay can be described thus: Inhibition of recombinant full length human His-tagged CSK expressed in Escherichia coli expression system at 500 nM using Tyr 02 peptide as substrate incubated for 1 hr in presence of ATP at its Km concentration by Z'-LYTE assay relative to control.
Assay [12] deals with T3, Serine/threonine-protein kinase Chk1 (Homo sapiens) (UniProt O14757).
T3 sequence (whole entry): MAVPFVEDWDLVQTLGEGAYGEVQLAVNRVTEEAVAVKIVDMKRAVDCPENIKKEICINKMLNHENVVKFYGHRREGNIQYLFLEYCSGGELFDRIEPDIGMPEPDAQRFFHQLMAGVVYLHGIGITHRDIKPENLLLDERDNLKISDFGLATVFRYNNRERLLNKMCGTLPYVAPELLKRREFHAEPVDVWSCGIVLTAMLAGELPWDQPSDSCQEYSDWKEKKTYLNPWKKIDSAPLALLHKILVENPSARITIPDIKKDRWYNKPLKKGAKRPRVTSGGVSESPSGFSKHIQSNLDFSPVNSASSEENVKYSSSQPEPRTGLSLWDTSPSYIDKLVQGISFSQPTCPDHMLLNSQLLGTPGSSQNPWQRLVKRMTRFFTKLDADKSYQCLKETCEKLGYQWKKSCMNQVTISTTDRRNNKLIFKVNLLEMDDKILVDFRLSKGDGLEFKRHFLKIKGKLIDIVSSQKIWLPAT
Put plainly: Inhibition of recombinant human full-length His-tagged CHEK1 expressed in baculovirus expression system at 500 nM using Ser/Thr 19 peptide as substrate incubated for 1 hr in presence of ATP at its Km concentration by Z'-LYTE assay relative to control.

Here are results for six compounds from ChEMBL document CHEMBL4715760, “Balancing potency, metabolic stability and permeability in pyrrolopyrimidine-based EGFR inhibitors” (Eur J Med Chem, 2016).

Tyrosine-protein kinase FRK (Homo sapiens), sequence (P42685 whole entry, the tested form may be a part): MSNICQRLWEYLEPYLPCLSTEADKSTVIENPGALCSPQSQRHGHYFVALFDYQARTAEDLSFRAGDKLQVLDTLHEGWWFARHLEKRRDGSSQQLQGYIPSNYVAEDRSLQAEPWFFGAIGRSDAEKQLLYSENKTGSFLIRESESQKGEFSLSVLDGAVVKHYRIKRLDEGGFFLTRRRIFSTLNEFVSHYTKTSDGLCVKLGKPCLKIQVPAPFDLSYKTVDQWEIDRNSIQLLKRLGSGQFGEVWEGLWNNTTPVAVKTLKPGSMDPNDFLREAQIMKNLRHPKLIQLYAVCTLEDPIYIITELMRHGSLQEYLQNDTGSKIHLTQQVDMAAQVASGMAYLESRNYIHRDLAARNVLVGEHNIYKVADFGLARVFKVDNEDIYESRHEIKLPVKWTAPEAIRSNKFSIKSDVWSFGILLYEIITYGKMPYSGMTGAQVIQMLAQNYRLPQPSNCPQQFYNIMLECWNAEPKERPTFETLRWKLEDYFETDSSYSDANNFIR
Tyrosine-protein kinase CSK (Homo sapiens), sequence (P41240 2-450 limits assumed): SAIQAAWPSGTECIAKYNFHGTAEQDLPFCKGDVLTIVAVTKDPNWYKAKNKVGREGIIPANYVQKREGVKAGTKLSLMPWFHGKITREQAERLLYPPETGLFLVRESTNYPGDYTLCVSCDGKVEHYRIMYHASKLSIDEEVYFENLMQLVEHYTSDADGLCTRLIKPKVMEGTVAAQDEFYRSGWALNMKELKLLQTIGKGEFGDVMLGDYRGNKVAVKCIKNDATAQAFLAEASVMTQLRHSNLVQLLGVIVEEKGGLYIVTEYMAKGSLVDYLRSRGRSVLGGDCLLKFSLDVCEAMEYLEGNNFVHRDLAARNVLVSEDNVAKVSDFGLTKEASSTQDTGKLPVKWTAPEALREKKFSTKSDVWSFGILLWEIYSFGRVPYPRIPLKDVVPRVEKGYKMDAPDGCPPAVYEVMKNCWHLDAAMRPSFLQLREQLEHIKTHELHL
Vascular endothelial growth factor receptor 3 (Homo sapiens), sequence (P35916 whole entry, the tested form may be a part): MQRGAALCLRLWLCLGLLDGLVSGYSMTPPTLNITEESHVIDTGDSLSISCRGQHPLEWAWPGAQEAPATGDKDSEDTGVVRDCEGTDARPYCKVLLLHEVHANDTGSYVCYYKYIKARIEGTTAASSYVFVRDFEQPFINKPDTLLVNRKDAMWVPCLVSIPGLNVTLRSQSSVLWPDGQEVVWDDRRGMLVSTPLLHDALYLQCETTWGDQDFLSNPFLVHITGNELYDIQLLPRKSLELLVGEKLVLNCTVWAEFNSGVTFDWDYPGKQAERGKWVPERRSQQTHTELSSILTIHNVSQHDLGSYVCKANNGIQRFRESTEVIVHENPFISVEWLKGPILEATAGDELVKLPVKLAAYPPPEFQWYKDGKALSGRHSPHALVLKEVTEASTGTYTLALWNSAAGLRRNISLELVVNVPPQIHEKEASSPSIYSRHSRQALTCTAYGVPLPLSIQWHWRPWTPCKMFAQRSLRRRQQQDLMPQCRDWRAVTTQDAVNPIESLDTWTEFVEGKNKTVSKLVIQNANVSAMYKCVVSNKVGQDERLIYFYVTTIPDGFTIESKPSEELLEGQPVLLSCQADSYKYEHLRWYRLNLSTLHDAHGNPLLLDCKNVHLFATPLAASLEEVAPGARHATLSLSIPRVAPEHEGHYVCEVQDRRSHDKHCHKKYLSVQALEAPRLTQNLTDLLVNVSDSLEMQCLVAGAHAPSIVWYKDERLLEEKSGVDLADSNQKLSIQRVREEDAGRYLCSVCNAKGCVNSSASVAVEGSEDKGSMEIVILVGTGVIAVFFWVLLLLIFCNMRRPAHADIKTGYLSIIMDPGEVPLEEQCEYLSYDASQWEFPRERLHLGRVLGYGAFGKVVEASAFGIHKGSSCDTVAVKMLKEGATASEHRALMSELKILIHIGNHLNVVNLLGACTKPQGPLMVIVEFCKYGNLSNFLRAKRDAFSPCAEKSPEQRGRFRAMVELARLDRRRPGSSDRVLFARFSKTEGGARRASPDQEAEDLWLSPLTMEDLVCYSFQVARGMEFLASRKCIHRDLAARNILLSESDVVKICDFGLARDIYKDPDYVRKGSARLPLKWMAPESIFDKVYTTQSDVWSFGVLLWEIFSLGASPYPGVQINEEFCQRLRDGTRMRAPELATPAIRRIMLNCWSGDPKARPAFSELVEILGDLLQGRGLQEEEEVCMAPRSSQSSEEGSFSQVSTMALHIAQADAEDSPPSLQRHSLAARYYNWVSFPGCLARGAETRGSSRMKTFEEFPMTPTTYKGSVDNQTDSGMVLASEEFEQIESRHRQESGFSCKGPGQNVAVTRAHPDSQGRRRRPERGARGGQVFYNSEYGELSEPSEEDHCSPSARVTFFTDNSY
Proto-oncogene tyrosine-protein kinase receptor Ret (Homo sapiens), sequence (P07949 whole entry, the tested form may be a part): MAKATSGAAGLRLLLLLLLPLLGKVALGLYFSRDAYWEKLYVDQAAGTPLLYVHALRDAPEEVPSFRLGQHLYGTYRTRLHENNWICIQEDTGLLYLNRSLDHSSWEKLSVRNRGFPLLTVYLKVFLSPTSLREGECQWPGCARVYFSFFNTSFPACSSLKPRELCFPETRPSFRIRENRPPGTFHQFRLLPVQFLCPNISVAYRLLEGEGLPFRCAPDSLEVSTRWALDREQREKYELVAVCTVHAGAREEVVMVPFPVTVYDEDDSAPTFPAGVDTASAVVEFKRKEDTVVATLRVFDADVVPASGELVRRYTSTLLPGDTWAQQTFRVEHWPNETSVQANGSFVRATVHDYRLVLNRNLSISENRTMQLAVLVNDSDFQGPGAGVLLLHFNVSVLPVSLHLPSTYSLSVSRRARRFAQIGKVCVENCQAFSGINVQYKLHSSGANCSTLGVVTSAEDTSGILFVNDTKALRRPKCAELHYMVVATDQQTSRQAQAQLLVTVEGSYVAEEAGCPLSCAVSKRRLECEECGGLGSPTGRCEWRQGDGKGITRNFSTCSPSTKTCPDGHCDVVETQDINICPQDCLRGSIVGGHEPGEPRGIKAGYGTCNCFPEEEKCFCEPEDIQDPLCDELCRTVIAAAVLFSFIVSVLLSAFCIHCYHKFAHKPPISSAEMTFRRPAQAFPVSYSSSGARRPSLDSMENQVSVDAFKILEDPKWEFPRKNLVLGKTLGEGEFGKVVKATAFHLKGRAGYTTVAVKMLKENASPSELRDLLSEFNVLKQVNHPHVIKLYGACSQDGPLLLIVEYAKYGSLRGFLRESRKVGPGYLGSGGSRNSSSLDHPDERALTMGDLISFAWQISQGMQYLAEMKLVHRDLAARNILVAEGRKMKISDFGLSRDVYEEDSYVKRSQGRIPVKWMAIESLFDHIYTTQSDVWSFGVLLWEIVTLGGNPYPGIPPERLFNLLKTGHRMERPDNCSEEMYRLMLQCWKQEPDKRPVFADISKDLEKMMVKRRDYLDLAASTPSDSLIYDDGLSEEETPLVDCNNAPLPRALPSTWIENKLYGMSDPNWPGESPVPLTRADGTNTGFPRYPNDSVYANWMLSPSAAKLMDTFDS
Vascular endothelial growth factor receptor 2 (Homo sapiens), sequence (P35968 whole entry, the tested form may be a part): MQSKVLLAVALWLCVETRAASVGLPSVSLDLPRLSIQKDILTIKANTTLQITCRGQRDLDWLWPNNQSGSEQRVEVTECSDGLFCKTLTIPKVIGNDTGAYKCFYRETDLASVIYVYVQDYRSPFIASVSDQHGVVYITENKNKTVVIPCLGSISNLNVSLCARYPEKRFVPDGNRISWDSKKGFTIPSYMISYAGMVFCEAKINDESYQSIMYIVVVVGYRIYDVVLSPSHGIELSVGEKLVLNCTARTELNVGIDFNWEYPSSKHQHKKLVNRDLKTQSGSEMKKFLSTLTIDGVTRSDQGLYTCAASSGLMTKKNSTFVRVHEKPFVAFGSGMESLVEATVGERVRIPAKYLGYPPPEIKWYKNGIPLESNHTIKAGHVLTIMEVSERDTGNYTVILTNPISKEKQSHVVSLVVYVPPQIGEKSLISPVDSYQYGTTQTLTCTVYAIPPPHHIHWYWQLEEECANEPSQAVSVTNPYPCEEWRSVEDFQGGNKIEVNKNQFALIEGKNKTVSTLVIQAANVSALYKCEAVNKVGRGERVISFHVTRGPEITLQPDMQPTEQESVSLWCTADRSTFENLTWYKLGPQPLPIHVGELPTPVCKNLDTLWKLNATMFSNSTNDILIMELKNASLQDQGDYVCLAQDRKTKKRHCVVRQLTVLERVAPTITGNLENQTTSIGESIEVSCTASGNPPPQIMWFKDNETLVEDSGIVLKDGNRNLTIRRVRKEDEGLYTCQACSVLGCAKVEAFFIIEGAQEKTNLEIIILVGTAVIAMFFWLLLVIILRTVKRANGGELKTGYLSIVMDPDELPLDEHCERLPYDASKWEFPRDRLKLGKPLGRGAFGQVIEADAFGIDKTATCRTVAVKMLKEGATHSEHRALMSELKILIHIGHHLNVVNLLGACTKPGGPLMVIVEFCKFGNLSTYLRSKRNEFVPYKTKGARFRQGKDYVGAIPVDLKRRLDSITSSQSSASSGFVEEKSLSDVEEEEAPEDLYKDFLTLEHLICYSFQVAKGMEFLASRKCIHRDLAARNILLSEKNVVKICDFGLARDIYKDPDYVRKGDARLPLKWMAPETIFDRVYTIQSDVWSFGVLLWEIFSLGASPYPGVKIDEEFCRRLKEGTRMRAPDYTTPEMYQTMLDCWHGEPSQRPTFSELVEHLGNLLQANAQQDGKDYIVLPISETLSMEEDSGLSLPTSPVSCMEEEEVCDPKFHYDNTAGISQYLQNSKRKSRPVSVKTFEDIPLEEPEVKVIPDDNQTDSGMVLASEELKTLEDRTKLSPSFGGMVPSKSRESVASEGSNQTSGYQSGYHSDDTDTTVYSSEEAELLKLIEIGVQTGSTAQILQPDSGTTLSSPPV

With `OCC[C@@H](Nc1ncnc2[nH]c(-c3ccccc3)cc12)c1ccccc1`, the inhibition in [1] came out at 20%; in assay [2], 5%; in assay [3], 7%; in assay [4] it was 7%; in [5], 14%; in [6], 2%. For the same compound, the inhibition in assay [7] was 49%; in assay [8] it was -3%; in assay [9], -5%; in [10], 0%; in assay [11], 19%.
`OC[C@@H](Nc1ncnc2[nH]c(-c3ccccc3)cc12)c1ccccc1`: the inhibition in [1] is 6%; in assay [2], 29%; in assay [3], -3%; in [4], 1%; in assay [5] it was 33%; in assay [6] it was 14%. Besides, the inhibition in assay [7] came out at 60%; in assay [8], 19%; in assay [9], 1%; in assay [12], 10%; in assay [10], 28%; in assay [11], 9%.
In the case of `CCOc1ccccc1-c1cc2c(N[C@H](CO)c3ccccc3)ncnc2[nH]1`, the inhibition is 21% in assay [1]; 11% in assay [2]; 2% in assay [3]; 6% in assay [4]; 32% in assay [5]; 9% in assay [6]. Moreover, the inhibition was 44% in [7]; -2% in assay [8]; -3% in assay [9]; 9% in assay [10]; 17% in assay [11].
In the case of `CN(C)CCNCc1ccc(-c2cc3c(N[C@H](CO)c4ccccc4)ncnc3[nH]2)cc1F`, the inhibition is 27% in assay [1]; 21% in assay [2]; -6% in assay [3]; 4% in [4]; 49% in assay [5]; 25% in assay [6]. Moreover, the inhibition in assay [7] is 68%; in assay [8], 3%; in assay [9], -3%; in assay [10], 53%; in assay [11], 17%.
For `C#Cc1cccc(Nc2ncnc3cc(OCCOC)c(OCCOC)cc23)c1` [ERLOTINIB], the inhibition was 44% in assay [1]; -10% in [4]; 16% in [5]; 20% in assay [8]; -9% in assay [9]; -7% in assay [12].
`COc1ccccc1-c1cc2c(N[C@H](CO)c3ccccc3)ncnc2[nH]1`: the inhibition in assay [1] was 12%; in assay [2], 14%; in assay [3], -2%; in [4], -1%; in assay [5], 36%; in assay [6], 15%. In addition, the inhibition in [7] is 64%; in assay [8], 9%; in [12] it was 3%; in [10], 15%; in assay [11], 6%.

By inhibition is commonly meant the relative decrease from the control value, in per cent.
